The source of these data is PMC10224356, “Trisubstituted 1,3,5-Triazines as Histamine H4 Receptor Antagonists with Promising Activity In Vivo” (Molecules, 2023).

The target of data set [1] is T1, human histamine H4 receptor (Homo sapiens, UniProt Q9H3N8).
T1 construct: made in house; host or cells: Sf9 cells (membrane preparations)
As to the kind of experiment: [3H]histamine displacement assay, membranes of Sf9 cells expressing hH4R with Gαi2 and Gβ1γ2. The settings on record: for Ki: Sf9 membranes, mean within 95% CI; for inhibition at 1 µM: per cent of inhibition at 1 μM, read-out: hH4R inh. at 1 μM. It counts as binding. How it is done: The affinity of compounds 2–20 for hH4R was evaluated in a binding assay as previously described. [^3H]Histamine was used as a radioligand and hH4R was expressed in Sf9 cells with G protein Gαi2 and Gβ1γ2 subunits. The pharmacological results represented as Ki values are listed in Table 1 (for alicyclic derivatives) and Table 2 (for aliphatic derivatives). […] Results depended on the substituent in the four positions of a triazine (a main structure).
Affinities of all triazine derivatives were determined in a [^3H] histamine (f.c. 10 nM) displacement assay using membrane preparations from Sf9 cells expressing human H4R and co-expressed with Gαi2 and Gβ1γ2 subunits as described previously. Nonspecific binding was determined in the presence of unlabelled JNJ7777120 ([…]).

For data set [2], the target named is T2, hH4R (Homo sapiens, UniProt Q9H3N8). Nature of the data set: β-arrestin recruitment assay (LiveBLAzer, Tango-H4-bla U2OS cells). It counts as cell-based. More on the design: expressed in transfected cells; host or cells: Tango-H4-bla U2OS cells. Conditions: for IC50 / β-arrestin hH4R % of max. Antagonist Activity at 10 µM: antagonist mode; for IC50: histamine 500 nM (EC80), Tango-H4-bla U2OS cells, read-out: β-arrestin hH4R IC50 ± SEM; for Kb: calculated from IC50 by Leff–Dougall variant of Cheng–Prusoff equation, read-out: pKb β-arrestin ± SEM (converted). How it is done: Compounds were tested using LiveBLAzer^TM assay and Tango-H4-bla U2OS cells, allowing the estimation of the percentage of β-arrestin recruitment in response to tested treatments.
T2 sequence (Q9H3N8 whole entry): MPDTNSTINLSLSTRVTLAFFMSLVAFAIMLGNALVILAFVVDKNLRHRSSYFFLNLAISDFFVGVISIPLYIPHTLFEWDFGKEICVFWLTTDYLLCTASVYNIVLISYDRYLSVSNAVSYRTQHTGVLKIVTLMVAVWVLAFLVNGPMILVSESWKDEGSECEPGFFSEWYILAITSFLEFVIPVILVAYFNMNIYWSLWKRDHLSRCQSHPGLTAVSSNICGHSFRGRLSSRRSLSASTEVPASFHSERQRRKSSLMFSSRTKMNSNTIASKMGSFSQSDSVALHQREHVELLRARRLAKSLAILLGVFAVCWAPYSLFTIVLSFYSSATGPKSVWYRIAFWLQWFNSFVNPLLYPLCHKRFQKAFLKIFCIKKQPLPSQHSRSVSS
All used media and reagents except DMSO and tested compounds were purchased from ThermoFisher Scientific, Waltham, MA, USA. DMSO was from CarlRoth (Karlsruhe, Germany) and histamine was from Sigma Aldrich (Darmstadt, Germany). […] The day before the experiment cells were collected from the culture flask with trypsin and seeded in 384 well black-wall, clear-bottom plate (PerkinElmer, Waltham, MA, USA) in concentration 10,000 cells/well in FreeStyle medium. After 24 h of incubation, the cells were checked under the microscope and the dilutions of tested compounds were prepared and added to the wells. In agonist mode compounds were added to the wells and plates were placed in the incubator (HERAcell240, Heraeus, Hanau, Germany) for 16 h. In antagonist mode, first, the compounds were added to the wells, plates were incubated for 30 min, then histamine solution (corresponding to EC80—500 nM) was added and plates were put in the incubator for 16 h. After this time β-lactamase substrate mixture was prepared and added to wells (8 µL/well). Cells were incubated for 2 h at room temperature in the dark then the signal was read using an EnSpire microplate reader (PerkinElmer, Waltham, MA, USA). Drawing of dose-dependent curves and IC50 calculation for compounds were made using GraphPad Prism 6 (GraphPad Software, San Diego, CA, USA).

Data set [3] has as its target T2, hH4R. As to the kind of experiment: cAMP accumulation assay (LANCE Ultra cAMP, CHO-K1 cells stably expressing hH4R). It counts as cell-based. More on the design: expressed in transfected cells. The settings on record: for IC50: forskolin 10 µM, histamine 140 nM, CHO-K1 hH4R cells, read-out: cAMP hH4R IC50 ± SEM; for Kb: calculated from IC50 by Leff–Dougall variant of Cheng–Prusoff equation, read-out: pKb cAMP ± SEM (converted). How it is done:
Intrinsic activity via the Gα subunit was measured using a LANCE Ultra cAMP detection kit and CHO-K1 cells stably expressing hH4R. Adenyl cyclase was stimulated by forskolin (10 µM).
Intrinsic activity in G protein-dependent pathway was measured with homogenous TR-FRET immunoassay, using LANCE Ultra cAMP kit and CHO-K1 H4R cell line or γ-irradiated recombinant CHO-K1 H4R cells (all from PerkinElmer). […] If the CHO-K1 H4R cell line was used it had been cultivated in DMEM/F12 10% FBS 400 µg/mL geneticin and passaged three times a week. […] The antagonist activity was measured in a white, opaque, 384-well microplate (PerkinElmer) with a total volume of 20 µL. […] After incubation, 5 µL of europium chelate-labelled cAMP tracer and 5 µl of ULight-labelled anti-cAMP mAb working solutions were added, mixed and incubated for 1 h. TR-FRET signal was read using a microplate reader (PerkinElmer, Waltham, MA, USA).

The target in data set [4] is T2, hH4R. The description is as above. It counts as cell-based. Further details: expressed in transfected cells. The settings on record: antagonist mode.

T1 sequence (Q9H3N8 whole entry): as above

On to `COC(C)Cc1nc(N)nc(N2CCN(C)CC2)n1` (centres unmarked) [Compound 13, 4-(2-Methoxypropyl)-6-(4-methylpiperazin-1-yl)-1,3,5-triazin-2-amine], for which the melting point lay within 148 to 151 °C. In data set [1], this compound came in with an inhibition constant Ki of 4260 nM.
The corresponding values for `CC/C=C/c1nc(N)nc(N2CCN(C)CC2)n1` [Compound 15, (E) 4-(But-1-enyl)-6-(4-methylpiperazin-1-yl)-1,3,5-triazin-2-amine] are 125 to 126 °C and 1490 nM.
Compound `CCC(C)Cc1nc(N)nc(N2CCN(C)CC2)n1` (centres unmarked) [Compound 12, 4-(2-Methylbutyl)-6-(4-methylpiperazin-1-yl)-1,3,5-triazin-2-amine] showed a melting point of 115 to 116 °C. At hH4R [2], the IC50 is 38 ± 7 nM, the “β-arrestin hH4R % of max. Antagonist Activity at 10 µM” value (from here on “β-arrestin hH4R %”) is recorded as 100% and the Kb is 6.17 nM. Moreover, the Ki in data set [1] came to 321 nM. In addition, the IC50 at hH4R [3] (antagonist mode) came to 132 ± 9 nM. The Kb at hH4R [3] was 46.8 nM. Further, the “cAMP hH4R % of max. Antagonist Activity at 10 µM” value (“cAMP hH4R %” below) at hH4R [4] is reported as 111%.
Compound `CCCCCc1nc(N)nc(N2CCN(C)CC2)n1` [Compound 19, 4-(4-Methylpiperazin-1-yl)-6-pentyl-1,3,5-triazin-2-amine] displayed a melting point of 173 to 178 °C. At hH4R [2], the IC50 came out at 34.9 ± 7 nM, the “β-arrestin hH4R %” value is given as 99% and the Kb was 5.62 nM. The same compound registered a Ki in data set [1] of 393 nM. For the same compound, on hH4R [3] (antagonist mode), the half-maximal inhibitory concentration (IC50) is 419 ± 77 nM. For the same compound, on hH4R [3], the Kb was 145 nM. Also, the “cAMP hH4R %” value on hH4R [4] is given as 97%.
For the compound `CCCC(C)c1nc(N)nc(N2CCN(C)CC2)n1` (centres unmarked) [Compound 11, 4-(4-Methylpiperazin-1-yl)-6-(pentan-2-yl)-1,3,5-triazin-2-amine], the melting point was in the range of 138 to 140 °C. Also, at hH4R [2], the IC50 was 97 ± 16 nM, the “β-arrestin hH4R %” value is 97% and the Kb was 15.8 nM. In addition, affinity in data set [1] was put at a Ki of 353 nM. Moreover, on hH4R [3] (antagonist mode), the IC50 is 640 ± 49 nM. In addition, the Kb on hH4R [3] was 224 nM. Moreover, at hH4R [4], the “cAMP hH4R %” value was found to be 100%.
As for `C=CCCc1nc(N)nc(N2CCN(C)CC2)n1` [Compound 16, 4-(But-3-enyl)-6-(4-methylpiperazin-1-yl)-1,3,5-triazin-2-amine], the melting point lay in the range of 132 to 133 °C. Further, at hH4R [2], the half-maximal inhibitory concentration (IC50) is 146 ± 38 nM, the “β-arrestin hH4R %” value was 94% and the Kb was 23.4 nM. Besides, in data set [1], the Ki turned out to be 319 nM. Moreover, the IC50 at hH4R [3] (antagonist mode) was determined as 635 ± 123 nM. Further, on hH4R [3], the Kb was 219 nM. Also, the “cAMP hH4R %” value on hH4R [4] stood at 104%.
The compound `CC/C=C/Cc1nc(N)nc(N2CCN(C)CC2)n1` [Compound 20, (E)-4-(4-Methylpiperazin-1-yl)-6-(pent-2-enyl)-1,3,5-triazin-2-amine] displayed a melting point of 117 to 119 °C. For the same compound, at hH4R [2], the IC50 is 376 ± 9 nM and the “β-arrestin hH4R %” value is listed as 101%. The inhibition at 1 µM in data set [1] was found to be 6%.
Turning to `CN1CCN(c2nc(N)nc(CC34CC5CC(CC(C5)C3)C4)n2)CC1` [Compound 9, 4-(1-Adamantylmethyl)-6-(4-methylpiperazin-1-yl)-1,3,5-triazin-2-amine], the melting point was 200 to 201 °C. Also, the inhibition at 1 µM in data set [1] was found to be 43%.
As for `CN1CCN(c2nc(N)nc(CC3CCCCC3)n2)CC1` [TR-AF-49], at hH4R [2], the IC50 is 68 ± 7 nM, the “β-arrestin hH4R %” value was found to be 99% and the Kb was 11.2 nM. The IC50 at hH4R [3] (antagonist mode) came to 271 ± 11 nM. Besides, the Kb on hH4R [3] is 95.5 nM. For the same compound, the “cAMP hH4R %” value on hH4R [4] came out at 98%.
As for `S=C(NC1CCCCC1)N1CCC(c2cnc[nH]2)CC1` [Thioperamide, reference compound], the “β-arrestin hH4R %” value at hH4R [2] was 102%. The “cAMP hH4R %” value at hH4R [3] (at 10 µM, antagonist mode) was found to be 111%.
